pIC50: −log10 of the molar value. Like-named read-outs stand apart in the source and are kept apart here.
Experiments:
SXFS TE671 = experiment: 2D monolayer CellTiter-Blue viability, soft tissue sarcoma TE671; type: cell-based; conditions: 72 h
Protocol: (§1) Seventeen compounds, including mebendazole (Batch no. […] Efficacy of compounds was assessed using CellTiter-Blue® Cell Viability Assay. Anti-tumor activity is expressed as absolute and relative IC50 and IC70 values, calculated by non-linear regression analysis.

SXFS SK-LMS-1 = experiment: 2D monolayer CellTiter-Blue viability, soft tissue sarcoma SK-LMS-1; type: cell-based; conditions: 72 h
Protocol: as §1

RXF 1781L = experiment: 2D monolayer CellTiter-Blue viability, renal cancer RXF 1781L; type: cell-based; conditions: for Test/Control (%) at Drug Concentration: 72 h; for pIC50: RXF 1781L
Protocol: Mebendazole was tested in vitro across a panel of 12 tumor cell lines of ovarian and renal cancer by using a 2D monolayer assay. […] OVXF 899L and RXF 486L are P-gp expressing, multidrug resistant cell lines.
Anti-tumor activity is expressed as absolute and relative IC50/70 values, calculated by 4-parameter non-linear curve fit.

CYP2D6 = CYP2D6 (Homo sapiens, UniProt P10635); experiment: Cytochrome P450 reaction phenotyping, recombinant CYP2D6 (Bactosomes)
Protocol: Incubations were also performed using control Bactosomes™ (no P450 enzymes present) to reveal any non-enzymatic degradation. Control compounds known to be metabolised specifically by each P450 isoform were included. All incubations were performed singularly for each test compound.
Incubations were also performed using control Bactosomes™ (no P450 enzymes present) to reveal any non-enzymatic degradation. Control compounds known to be metabolised specifically by each P450 isoform were included. All incubations were performed singularly for each test compound. […] The reactions were stopped by transferring an aliquot of incubate to quench solvent at the appropriate time points, in a 1:3 ratio. The termination plates were centrifuged at 3,000 rpm for 20 min at 4° C. to precipitate the protein.

[1] = Stability in human cryopreserved hepatocytes without and with cimetidine or furafylline (Example 5); type: in vitro ADME; conditions: human; for hepatocyte CLint at 1 µM: read-out: intrinsic clearance
Protocol: The final incubation volume was 500 μL. Two control compounds were included with each species, alongside appropriate vehicle control.
The samples were analysed for mebendazole or ethoxycoumarin using LC-MS/MS.
The final incubation volume was 500 μL.
A positive control compound, ethoxycoumarin, for CYP1A2 was included. […] The samples were analysed for mebendazole or ethoxycoumarin using LC-MS/MS.

Sequence of CYP2D6 (P10635 whole entry, canonical isoform): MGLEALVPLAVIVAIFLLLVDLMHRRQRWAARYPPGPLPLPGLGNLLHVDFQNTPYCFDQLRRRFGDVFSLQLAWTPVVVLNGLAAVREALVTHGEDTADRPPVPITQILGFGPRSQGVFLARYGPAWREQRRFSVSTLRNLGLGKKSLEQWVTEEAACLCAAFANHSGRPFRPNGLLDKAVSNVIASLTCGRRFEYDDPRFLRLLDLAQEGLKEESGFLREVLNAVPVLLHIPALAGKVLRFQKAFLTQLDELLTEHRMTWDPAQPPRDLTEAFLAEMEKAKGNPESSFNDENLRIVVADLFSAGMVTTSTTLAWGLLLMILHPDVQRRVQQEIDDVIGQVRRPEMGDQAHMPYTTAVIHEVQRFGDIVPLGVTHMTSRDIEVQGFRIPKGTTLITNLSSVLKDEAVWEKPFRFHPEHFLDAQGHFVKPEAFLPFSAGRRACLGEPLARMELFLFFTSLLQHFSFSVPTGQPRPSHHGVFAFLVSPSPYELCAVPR

What does the source list for `COC(=O)Nc1nc2ccc(C(=O)c3ccccc3)cc2[nH]1` [Mebendazole, methyl N-(6-benzoyl-1H-benzimidazol-2-yl)carbamate]?
Test/Control (%) at Drug Concentration (SXFS TE671; TE671, 1.0E+00 μM): 38%; Test/Control (%) at Drug Concentration (SXFS TE671; TE671, 1.0E+01 μM): 17%; Test/Control (%) at Drug Concentration (SXFS TE671; TE671, 1.0E+02 μM): 5%; Test/Control (%) at Drug Concentration (SXFS TE671; TE671, 1.0E−01 μM): 72%; Test/Control (%) at Drug Concentration (SXFS TE671; TE671, 1.0E−02 μM): 87%; Test/Control (%) at Drug Concentration (SXFS TE671; TE671, 3.2E+00 μM): 32%; Test/Control (%) at Drug Concentration (SXFS TE671; TE671, 3.2E+01 μM): 13%; Test/Control (%) at Drug Concentration (SXFS TE671; TE671, 3.2E−01 μM): 45%; Test/Control (%) at Drug Concentration (SXFS TE671; TE671, 3.2E−02 μM): 85%; Test/Control (%) at Drug Concentration (SXFS TE671; TE671, 3.2E−03 μM): 80%; Test/Control (%) at Drug Concentration (SXFS SK-LMS-1; SK-LMS-1, 1.0E+00 μM): 27%; Test/Control (%) at Drug Concentration (SXFS SK-LMS-1; SK-LMS-1, 1.0E+01 μM): 9%; Test/Control (%) at Drug Concentration (SXFS SK-LMS-1; SK-LMS-1, 1.0E+02 μM): 3%; Test/Control (%) at Drug Concentration (SXFS SK-LMS-1; SK-LMS-1, 1.0E−01 μM): 80%; Test/Control (%) at Drug Concentration (SXFS SK-LMS-1; SK-LMS-1, 1.0E−02 μM): 90%; Test/Control (%) at Drug Concentration (SXFS SK-LMS-1; SK-LMS-1, 3.2E+00 μM): 16%; Test/Control (%) at Drug Concentration (SXFS SK-LMS-1; SK-LMS-1, 3.2E+01 μM): 5%; Test/Control (%) at Drug Concentration (SXFS SK-LMS-1; SK-LMS-1, 3.2E−01 μM): 45%; Test/Control (%) at Drug Concentration (SXFS SK-LMS-1; SK-LMS-1, 3.2E−02 μM): 83%; Test/Control (%) at Drug Concentration (SXFS SK-LMS-1; SK-LMS-1, 3.2E−03 μM): 101%; Test/Control (%) at Drug Concentration (RXF 1781L; RXF 1781, 1.0E+00 μM): 25%; Test/Control (%) at Drug Concentration (RXF 1781L; RXF 1781, 1.0E−01 μM): 91%; Test/Control (%) at Drug Concentration (RXF 1781L; RXF 1781, 1.0E−02 μM): 92%; Test/Control (%) at Drug Concentration (RXF 1781L; RXF 1781, 1.0E−03 μM): 101%; Test/Control (%) at Drug Concentration (RXF 1781L; RXF 1781, 1.0E−04 μM): 98%; Test/Control (%) at Drug Concentration (RXF 1781L; RXF 1781, 3.2E+00 μM): 32%; Test/Control (%) at Drug Concentration (RXF 1781L; RXF 1781, 3.2E−01 μM): 61%; Test/Control (%) at Drug Concentration (RXF 1781L; RXF 1781, 3.2E−02 μM): 95%; Test/Control (%) at Drug Concentration (RXF 1781L; RXF 1781, 3.2E−03 μM): 95%; Test/Control (%) at Drug Concentration (RXF 1781L; RXF 1781, 3.2E−04 μM): 100%; Abs. IC70 (RXF 1781L; RXF 1781, 72 h): 0.978 µM; Rel. IC70 (RXF 1781L; RXF 1781, 72 h): 0.410 µM; Bot. (%) (RXF 1781L; RXF 1781, 72 h, curve fit): 28%; Top (%) (RXF 1781L; RXF 1781, 72 h, curve fit): 96%; pIC50 (RXF 1781L; RXF 1781, 72 h, read-out: Abs. IC50): 6.40; pIC50 (RXF 1781L; RXF 1781, 72 h, read-out: Rel. IC50): 6.51; Compound Remaining (% of 0 min) (CYP2D6; CYP2D6, 5 μM, 0 min): 100 % of 0 min; Compound Remaining (% of 0 min) (CYP2D6; CYP2D6, 5 μM, 5 min): 93.6 % of 0 min; Compound Remaining (% of 0 min) (CYP2D6; CYP2D6, 5 μM, 15 min): 93.3 % of 0 min; Compound Remaining (% of 0 min) (CYP2D6; CYP2D6, 5 μM, 30 min): 94.6 % of 0 min; Compound Remaining (% of 0 min) (CYP2D6; CYP2D6, 5 μM, 45 min): 90.4 % of 0 min; % compound remaining (CYP2D6; CYP2D6, 5 μM, time not stated): > 87.5%; t1/2 (CYP2D6; CYP2D6, substrate 5 μM): >2.25 h; half-life at 5 μM (CYP2D6; human, recombinant CYP2D6 (Bactosomes), pH 7.4): > 2.25 h; half-life at 1 μM ([1]; cryopreserved hepatocytes (suspension), in the presence of cimetidine (30-300 μM), read-out: half-life, maximum): ≤ 2.32 h; half-life at 1 μM ([1]; cryopreserved hepatocytes (suspension), substrate 1 μM, no inhibitor, read-out: t1/2): 1.73 h; hepatocyte CLint at 1 µM ([1]; cryopreserved hepatocytes (suspension), with furafylline 10 µM, substrate 1 μM, 10 μM furafylline): 2.43 µL/min/1e6 cells; hepatocyte CLint at 1 µM ([1]; cryopreserved hepatocytes (suspension), with furafylline 30 µM, substrate 1 μM, 30 μM furafylline): 1.47 µL/min/1e6 cells; half-life at 1 μM ([1]; cryopreserved hepatocytes (suspension), with furafylline 3-30 µM (maximum half-life over 3, 10 and 30 µM), in the presence of furafylline (3-30 μM), read-out: half-life, maximum): ≤ 15.7 h; hepatocyte CLint at 1 µM ([1]; cryopreserved hepatocytes, substrate 1 μM, absence of inhibitor (inhibitor experiment)): 13.3 µL/min/1e6 cells; hepatocyte CLint at 1 µM ([1]; cryopreserved hepatocytes, substrate 1 μM, hepatocyte stability investigation (no inhibitor arm)): 19.1 µL/min/1e6 cells; hepatocyte CLint at 1 µM ([1]; cryopreserved hepatocytes, with cimetidine 30 μM, substrate 1 μM, 30 μM cimetidine): 13.2 µL/min/1e6 cells

Reference: US20220125765A1, “PHARMACEUTICAL COMBINATIONS COMPRISING MEBENDAZOLE AND A STRONG OR MODERATE CYP1A2 INHIBITOR” (ZEPHAPHARM LTD, priority 2019, published 2022)
